Assays:
[1] = molecular target: T1, recombinant human Wee1A kinase (Homo sapiens, UniProt P30291); assay: LanthaScreen Europium (Eu) Kinase Binding Assay, Wee1A kinase (TR-FRET tracer displacement); conditions: 30 nM tracer 178, 5 nM Wee1A kinase, 60 minutes at room temperature
T1 construct: full length Wee1A kinase was expressed by baculovirus in insect cells; purchased Invitrogen PV3817; host or cells: insect cells (baculovirus)
Excerpt: We used a LanthaScreen Europium (Eu) Kinase Binding Assay to determine the binding of provided compounds to Wee1A kinase. The assay utilizes an Alexa Fluor 647-labeled ATP competitive kinase tracer that binds to the ATP binding site of a GST-tagged Wee1A kinase, while a europium (Eu) labeled antibody binds to the GST tag. The proximity of fluorescently labeled kinase tracer and europium (Eu) donor fluorophore antibody leads to fluorescence resonance energy transfer (FRET) to the fluorescence label (acceptor) upon excitation of the Eu (donor). Displacement of tracer from the ATP-binding site by a test compound disturbs the proximity between both labels thus lowering the FRET.
This time resolved-FRET binding assay was performed in white 384-well low volume plates (Greiner, cat #784075), at room temperature in kinase buffer A (KBA; Invitrogen cat #PV3189), consisting of 50 mM HEPES-NaOH (pH 7.5), 0.01% Brij-35, 10 mM MgCl2, and 1 mM EGTA. 5 μl of compound (diluted in reaction buffer, to 1% DMSO) were added to various wells in the plate, followed by 5 μl each of recombinant human Wee1A kinase (full length Wee1A kinase was expressed by baculovirus in insect cells using a N-terminal GST tag (MW: 99.1 kDa) (Invitrogen cat #PV3817) and LanthaScreen Eu-anti-GST antibody (Invitrogen, cat #PV5594). After this, 5 μl of kinase tracer 178 (Invitrogen, cat #PV5593) was added to the plate and the plate was incubated for 60 minutes at room temperature. The final assay conditions in each well were: 30 nM tracer 178, 5 nM Wee1A kinase and 2 nM Eu-labeled antibody in total assay volume of 15 μl. An Envision 2104 (Perkin-Elmer) Plate Reader with the following time-resolve fluorescence setting was used for performing LanthaScreen kinase binding assay. • Excitation 320 nm (30 nm bandpass) • Kinase Tracer Emission 665 nm (10 nm bandpass) • LanthaScreen Eu-anti-Tag Antibody Emission 615 nm (10 nm bandpass) • Dichroic Mirror Instrument dependent • Delay Time 100 μs • Integration Time 200 μs
To calculate the emission ratio, the acceptor/tracer emission ([…]) was divided by the antibody/donor emission ([…]) and the average of duplicate measurement was used for calculations. Data plotting, analysis of binding, and curve fitting was done using Excel add-in XLfit version 5.5.0.5 (IDBS, Guildford, United Kingdom).

[2] = system: Cdk1 phosphorylated on tyrosine 15; assay: High-content imaging of pCdk1 Y15 by immunofluorescence in ACHN cells; type: cell-based; conditions: Homo sapiens, high-content imaging (IF), 4 h, 7 to 5000 nM, read-out: CDK1 Tyr15 Phosphorylation EC50 (IC50)
Procedure: ACHN renal cell carcinoma cell line (ATCC) was cultured in Minimum Essential Medium Eagle supplemented with 10% fetal calf serum (Sigma), 1% Penicillin-Streptomycin and 10 mM HEPES buffer (HyClone). Cell cultures were kept in a humidified incubator at 37° C. and 5% CO2. Cells were routinely tested for Mycoplasma contamination.
High-content imaging of ACHN renal cell carcinoma cells was used for quantification of CDK1 phosphorylated on tyrosine 15 by immunofluorescence (“IF”). 20 000 cells per well were seeded in tissue culture treated 96 well plates and treated with compounds at concentrations ranging from 7 to 5000 nM for 4 h. Cells were fixated for 15 minutes in 4% paraformaldehyde solution, washed in PBS and permeabilized using 0.2% Triton X-100. Blocking was performed for 1 h at RT using Blocker FL Fluorescent Blocking Buffer (Thermo Scientific), thereafter cells were incubated with primary antibody (rabbit anti-pCDK1 Y^15, #4539, Cell Signaling Technology) at 4° C. ON. Alexa Fluor Plus 647 labelled goat anti-rabbit (A32733. Thermo Scientific) was used as secondary antibody. After washing in PBS, nuclei were stained with DAPI solution for 10 min at RT, protected from light. Cells were imaged using an ImageXpress Pico automated imaging system and CellReporter Xpress software (Molecular Devices). The percentage cells with nuclear positivity for pCdk1 Y^15 compared to DMSO control was determined for each well and drug dose response curves and EC50 values were calculated and visualized using GraphPad Prism.

T1 sequence (P30291 whole entry): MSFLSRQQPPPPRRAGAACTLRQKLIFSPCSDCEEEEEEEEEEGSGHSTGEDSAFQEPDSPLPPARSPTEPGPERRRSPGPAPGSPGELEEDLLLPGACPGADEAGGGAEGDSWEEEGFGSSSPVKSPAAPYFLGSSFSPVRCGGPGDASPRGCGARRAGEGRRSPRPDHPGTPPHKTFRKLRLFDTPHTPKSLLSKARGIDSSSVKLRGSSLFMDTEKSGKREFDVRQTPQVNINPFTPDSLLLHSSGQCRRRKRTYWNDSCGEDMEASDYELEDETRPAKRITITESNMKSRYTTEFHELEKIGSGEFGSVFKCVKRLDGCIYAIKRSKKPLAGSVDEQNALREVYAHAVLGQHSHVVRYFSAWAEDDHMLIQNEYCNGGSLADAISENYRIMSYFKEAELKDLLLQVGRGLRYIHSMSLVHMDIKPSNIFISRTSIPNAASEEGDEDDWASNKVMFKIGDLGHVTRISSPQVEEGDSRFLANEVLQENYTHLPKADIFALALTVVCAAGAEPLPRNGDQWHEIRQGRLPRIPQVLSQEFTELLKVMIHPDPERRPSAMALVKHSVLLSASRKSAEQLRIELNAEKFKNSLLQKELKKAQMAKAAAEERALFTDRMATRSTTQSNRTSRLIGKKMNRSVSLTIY

| SMILES | IC50 [1] [µM] | EC50 [2] [µM] |
| --- | --- | --- |
| COc1nc(Nc2ccc(OCCN(C)C)c(C)c2)ncc1C(=O)Nc1c(Cl)cccc1Cl [Compound 143, N-(2,6-dichlorophenyl)-2-((4-(2-(dimethylamino)ethoxy)-3-methylphenyl)amino)-4-methoxypyrimidine-5-carboxamide] | ≤ 0.01 | 0.1 to 0.5 |
| COc1nc(Nc2ccc(OCCN3CCOCC3)c(C)c2)ncc1C(=O)Nc1c(Cl)cccc1Cl [Compound 144, N-(2,6-dichlorophenyl)-4-methoxy-2-((3-methyl-4-(2-morpholinoethoxy)phenyl)amino)pyrimidine-5-carboxamide] | ≤ 0.01 | > 1 |
| COc1nc(Nc2ccc(O[C@@H]3CCN(C)C3)c(C)c2)ncc1C(=O)Nc1c(Cl)cccc1Cl [Compound 146, (R)—N-(2,6-dichlorophenyl)-4-methoxy-2-((3-methyl-4-((1-methylpyrrolidin-3-yl)oxy)phenyl)amino)pyrimidine-5-carboxamide] | ≤ 0.01 | ≤ 0.1 |
| COc1nc(Nc2ccc(OCCCN(C)C)c(C)c2)ncc1C(=O)Nc1c(Cl)cccc1Cl [Compound 147, N-(2,6-dichlorophenyl)-2-((4-(3-(dimethylamino)propoxy)-3-methylphenyl)amino)-4-methoxypyrimidine-5-carboxamide] | ≤ 0.01 | > 1 |
| COc1nc(Nc2ccc(OCCCN3CCOCC3)c(C)c2)ncc1C(=O)Nc1c(Cl)cccc1Cl [Compound 148, N-(2,6-dichlorophenyl)-4-methoxy-2-((3-methyl-4-(3-morpholinopropoxy)phenyl)amino)pyrimidine-5-carboxamide] | ≤ 0.01 | > 1 |
| COc1nc(Nc2ccc(OCCN(C)C)c(C)c2)ncc1C(=O)Nc1c(Cl)ccc(O)c1C [Compound 149, N-(6-chloro-3-hydroxy-2-methylphenyl)-2-((4-(2-(dimethylamino)ethoxy)-3-methylphenyl)amino)-4-methoxypyrimidine-5-carboxamide] | ≤ 0.01 | 0.1 to 0.5 |

Next, values leading:

| IC50 [1] [µM] | EC50 [2] [µM] | SMILES |
| --- | --- | --- |
| ≤ 0.01 | 0.1 to 0.5 | COc1nc(Nc2ccc(C3CCN(C)CC3)c(C)c2)ncc1C(=O)Nc1c(Br)cccc1C#N [Compound 134, N-(2-bromo-6-cyanophenyl)-4-methoxy-2-((3-methyl-4-(1-methylpiperidin-4-yl)phenyl)amino)pyrimidine-5-carboxamide] |
| ≤ 0.01 | 0.1 to 0.5 | COc1nc(Nc2ccc(C3CCN(C)CC3)c(C)c2)ncc1C(=O)Nc1c(F)cccc1Br [Compound 136, N-(2-bromo-6-fluorophenyl)-4-methoxy-2-((3-methyl-4-(1-methylpiperidin-4-yl)phenyl)amino)pyrimidine-5-carboxamide] |
| 0.01 to 0.1 | > 1 | COc1nc(Nc2ccc(C3CCN(C)CC3)c(C)c2)ncc1C(=O)Nc1c(Cl)cccc1C#N [Compound 137, N-(2-chloro-6-cyanophenyl)-4-methoxy-2-((3-methyl-4-(1-methylpiperidin-4-yl)phenyl)amino)pyrimidine-5-carboxamide] |
| ≤ 0.01 | > 1 | COc1nc(Nc2ccc(C3CCN(C)CC3)c(C)c2)ncc1C(=O)Nc1cc(O)ccc1Cl [Compound 138, N-(2-chloro-5-hydroxyphenyl)-4-methoxy-2-((3-methyl-4-(1-methylpiperidin-4-yl)phenyl)amino)pyrimidine-5-carboxamide] |
| ≤ 0.01 | ≤ 0.1 | COc1nc(Nc2ccc(C3CCN(C)CC3)c(C)c2)ncc1C(=O)Nc1c(C)ccc(O)c1C [Compound 142, N-(3-hydroxy-2,6-dimethylphenyl)-4-methoxy-2-((3-methyl-4-(1-methylpiperidin-4-yl)phenyl)amino)pyrimidine-5-carboxamide] |
| ≤ 0.01 | 0.1 to 0.5 | COc1nc(Nc2ccc(OC3CCN(C)CC3)c(C)c2)ncc1C(=O)Nc1c(Cl)cccc1Cl [Compound 145, N-(2,6-dichlorophenyl)-4-methoxy-2-((3-methyl-4-((1-methylpiperidin-4-yl)oxy)phenyl)amino)pyrimidine-5-carboxamide] |

From patent publication US20260207618A1, “PYRIMIDINE CARBOXAMIDE COMPOUNDS” (Acrivon Therapeutics, Inc., priority 2022, published 2026)
